Literature values, collected in patent US12237054B2, “Model for high-throughput screening of endocrine disruptor and method for screening same” (Nanjing University, priority 2018, dated 2025).

Test system: HEK293T
Conditions: standardized Activity value, data from public databases (ToxCast/Tox21, ChEMBL)

## CC(C)C(=O)Nc1ccc([N+](=O)[O-])c(C(F)(F)F)c1 [Flutamide]
  cytotoxicity experimental value: 4.4
